Data published in ChEMBL document CHEMBL1268893, “A practical deuterium-free NMR method for the rapid determination of 1-octanol/water partition coefficients of pharmaceutical agents” (Bioorg Med Chem Lett, 2010).

Columns and labels:
[1] = Octanol-water partition coefficient, log P of the compound; assay type: physicochemical
[2] = Octanol-water partition coefficient, log P of the compound by deuterium-free NMR method; assay type: physicochemical
[3] = Octanol-water partition coefficient, log P of the compound at pH 7.0
[4] = Octanol-water partition coefficient, log P of the compound after partitioning between 0.1 M NaOH and 1-octanol by deuterium-free NMR method; assay type: physicochemical; settings: 1-octanol/0.1 M NaOH

SMILES	logP [1]	logP [2]	logD [3]	logP [4]
CC(=O)Nc1ccc(O)cc1 [ACETAMINOPHEN]	0.33	0.29		
CC(=O)Oc1ccccc1C(=O)O [ASPIRIN]		1.15		
CC[C@H]1OC(=O)[C@H](C)[C@@H](O[C@H]2C[C@@](C)(OC)[C@@H](O)[C@H](C)O2)[C@H](C)[C@@H](O[C@@H]2O[C@H](C)C[C@H](N(C)C)[C@H]2O)[C@](C)(O)C[C@@H](C)C(=O)[C@H](C)[C@@H](O)[C@]1(C)O [ERYTHROMYCIN]	2.54	2.01		
O=C1CN(/N=C/c2ccc([N+](=O)[O-])o2)C(=O)N1 [NITROFURANTOIN]		-0.36	-0.68	
CCOc1ccc(NC(C)=O)cc1 [PHENACETIN]		1.45		
CCN(CC)CCOC(=O)c1ccc(N)cc1 [PROCAINE]	0.88			0.9
